Results: US20070243201A1, “Method for Selecting Epitopes for Immunotherapy” (Igeneon Krebs-Immuntherapie Forschungs-und entwicklungs-AG, priority 2003, published 2007)

Tested on: immune serum
Experiment: Ep-CAM epitope mapping by solid phase peptide (spot) synthesis: binding of biotinylated serum IgG to immobilized decapeptides
Details: immune serum of a patient after active immunotherapy with mAb17-1A (EpCAM antibody), taken 71 days after immunization; compared with pre-serum of day 1, which does not show this binding or shows it to a slight degree only; FIG. 1
Description: Protein G Sepharose Fast Flow (Amersham Biosciences) was packed into an HR 5 column (inner diameter 5 mm; Amersham Biosciences). The column was equilibrated with 5 column volumes of PBS buffer at a flow rate of 0.33 ml/min. Subsequently, serum was loaded at the same flow rate, followed by washing with further 5 column volumes. Elution was carried out with 0.2 M acetic acid +20% ethylene glycol, pH 2.7. The eluate was taken up in 1 M sodium bicarbonate buffer and thus brought to pH 8.6.
One aliquot of the purified serum was incubated with NHS-LC biotin for 1 h at room temperature. Subsequently, the sample was re-buffered via a Sephadex G25 gel filtration column (PD-10, Amersham Biosciences) so as to separate the biotinylated […] from free […], on the one hand, and to further transfer it into a medium suitable for the test system.
The spot synthesis was carried out by means of a modified method according to Frank (Tetrahedron 48 (1992) 9217-9232). Whatman 540 cellulose was dried over night in the desiccator. The membrane was then functionalized for 3 h with 0.2 M Fmoc-β alanine, 0.24 M diisopropyl carbodiimide and 0.4 M 1-methyl-imidazole. After washing with 3× dimethylformamide (DMF), the Fmoc group was cleaved off by treatment with 20% piperidine in DMF. The peptides were synthesized by means of the AutoSpot Robot ASP222 (INTAVIS, Germany). As the first amino acid, always a further β-alanine spacer was introduced. After the first β-alanine coupling, the remaining free amino groups were acetylated with 2% acetic anhydride. As the amino acids, Fmoc-protected Opfp esters of the amino acids (O-pentafluorophenyl, Novabiochem), dissolved in N-methyl pyrrolidone at a concentration of 0.3 M were used. Each amino acid was spotted twice per cycle. After each cycle, the Fmoc group was cleaved off with piperidine, as described above, and then the membrane was washed 6× with DMF. After the synthesis of the last amino acid, it was again acetylated, and then the side protection groups were cleaved off. At first, the membrane was treated with 90% trifluoroacetic acid, 3% triisobutyl silane, 1% phenol, 2% water and 4% dichloromethane for 30 minutes. Subsequently, the membrane was washed 5× with DCM, 3× with DMF and methanol and dried. This was followed by a further cleavage by treatment with 50% trifluoroacetic acid, 3% triisobutyl silane, 1% phenol, 2% water and 44% dichloromethane for two hours. […]
Since the major immune response is provided in the form of IgG, IgG was purified from the sera via protein G Sepharose. […] The concentration of the biotinylated IgG was determined via photometric absorption measurement at 280 nm, and after the addition of 0.2% sodium azide the material was stored at 4° C. […]

Row | binding of immune serum to the 10 mer peptides | Sequence
1 | increasingly binds | IADVAYYFEK [compound 53]
2 | increasingly binds | ALQKEITTRY [compound 42]
3 | increasingly binds | DPKFITSILY [compound 45]
4 | increasingly binds | DLDPGQTLIY [compound 61]
